Laboratory results published in article PMC9856044 (Biomolecules, 2023).

Columns and labels:
[1] = target: Tel22 (5′-AGGG(TTAGGG)3–3′) G-quadruplex; assay: Fluorimetric titration with Tel22 in sodium cacodylate buffer (Na+ solution); type: binding, human
Protocol: (§1) Materials. Polynucleotides were purchased as noted: poly A–poly U, calf thymus ctDNA, poly(dAdT)2 and poly(dGdC)2 (Sigma-Aldrich, St. Louis, MI, USA). Polynucleotides were dissolved in Na-cacodylate buffer, I = 0.05 mol dm^−3, pH = 7.0. The calf thymus ctDNA was additionally sonicated and filtered through a […]. Polynucleotide concentration was determined spectroscopically as the concentration of phosphates. Spectrophotometric titrations were performed at pH = 7.0 (I = 0.05 mol dm^−3, sodium cacodylate buffer) by adding aliquots of polynucleotide solution into the solution of the studied compound for fluorimetric experiments and CD experiments were done by adding aliquots of the compound stock solution into the solution of a polynucleotide. In fluorimetric experiments, an excitation wavelength of λexc = 425, 431, 423, 427, 406 and 407 nm, respectively, was used to avoid the inner filter effect caused due to increasing absorbance of the polynucleotide. Emission was collected in the range λem = 400–700 nm. Values for Ka obtained by processing titration data using the Scatchard equation [27], all have satisfactory correlation coefficients (≥0.98).
(§2) Thermal melting curves for DNA, RNA and their complexes with studied compounds were determined as previously described by following the absorption change at 260 nm as a function of temperature. The absorbance of the ligands was subtracted from every curve and the absorbance scale was normalized. Tm values are the midpoints of the transition curves determined from the maximum of the first derivative and checked graphically by the tangent method. The ∆Tm values were calculated by subtracting Tm of the free nucleic acid from Tm of the complex. Every ∆Tm value here reported was the average of two measurements. The error in ∆Tm is ±0.5 °C. 5′-AGGG(TTAGGG)3–3′(Tel22) was obtained from IDT (Integrated DNA Technologies, Coralville, IA, USA). Tel22 was dissolved in 0.1 M either in sodium cacodylate or potassium phosphate buffer. The starting Tel22 oligonucleotide solution was first heated up to 95 °C for 10 min, then slowly cooled to 10 °C at the cooling rate of 1 °C/min to allow DNA oligonucleotide to adopt a G-quadruplex structure. The G-quadruplex structure was confirmed by thermal melting and CD spectra. The concentration of G quadruplex was expressed in terms of oligonucleotide structure. In fluorimetric titrations, aliquots of Tel 22 solution were added to the solution of ligands (c ~ 2 × 10^−7 M, in SI).
Binding constants (log Ka) and stoichiometry of complexes were calculated from the fluorimetric data using non-linear least-square program SPECFIT [46], in the concentration range that corresponded to 20–80% complex formed.

[2] = system: poly(dAdT)2 (AT-DNA); assay: Thermal melting of AT-DNA; type: binding; settings: r [compound]/[nucleotide phosphate] = 0.1
Protocol: as §2
Binding abilities of 1–6 compounds were further explored by thermal melting experiments. […]

[3] = target: poly A–poly U (AU-RNA); assay: Fluorimetric titration with AU-RNA; type: binding
Protocol: as §1, with “(≥0.98). Furthermore, linear changes were evident with increasing DNA or RNA concentration in most titrations. The exceptions to this were titrations of cyanine 3 with GC-DNA and titrations of dye 5 with ds-DNA and ds-RNA where sufficient data points in the non-linear part of the curve allowed estimation of binding affinity (Ka values were of the order 10^5 mol^−1 dm^−3; Figures S16, S22 and S23 in SI). Titration data were collected at a high excess of polynucleotide binding sites (r[1–6]/[nucleotide phosphate] < 0.1; see Figures S9–S26 in SI) where each molecule can bind to a separate binding site. Binding affinities of dye-DNA/RNA complexes were calculated by non-linear fitting using the Scatchard equation [27, 33]. The fluorescence changes of dye 5 in the titration with AT-DNA were too small to obtain an accurate binding constant (Figure S21 in SI).” for “(≥0.98).”

[4] = Tel22, sodium cacodylate buffer, pH = 7.0, I = 0.1 mol dm^−3, SPECFIT fit of fluorescence titration

CN1/C(=C/c2[se]c3ccccc3[n+]2C)Sc2ccccc21 [Compound 3, 3-methyl-2-((3-methylbenzo[d]thiazol-2(3H)-ylidene)methyl)benzo[d][1,3]selenazol-3-ium methosulphate]
logKa1 (L + G ⇆ LG) [1, 4]: 7.26 ± 0.41
logKa2 (LG + G ⇆ LG2) [1, 4]: 5.93 ± 0.47
Selectivity for G-quadruplex over duplex DNA ([1]; binding affinities Tel22 vs duplex DNA, in both the Na+ and K+ solutions): 100 fold

C[n+]1c(/C=C2\Sc3ccccc3N2CCCS)[se]c2ccccc21 [Compound 5, 2-((3-(3-mercaptopropyl)benzo[d]thiazol-2(3H)-ylidene)methyl)-3-methylbenzo[d][1,3]selenazol-3-ium methosulphate]
∆Tm value [2]: 4 °C
log Ka ([3]; AU-RNA): 5
Ka (order of magnitude) ([3]; ds-RNA (AU-RNA), sodium cacodylate buffer, pH 7.0, I = 0.05 mol dm^−3, Scatchard equation): ~10^5 mol^−1 dm^−3
K (fit parameter of titration curve) ([3]; poly A – poly U, pH=7.0, sodium cacodylate buffer, I = 0.05 mol dm-3): 133756.34591 ±30379564.80418
